The half-life is the time needed for the level to fall by half in the phase considered.

This note sets out measurements from patent US20240207282A1, “METHOD OF INCREASING CHAPERONE MEDIATED AUTOPHAGY BY STABILIZING THE INTERACTION OF RETINOIC ACID RECEPTOR-ALPHA AND AN INHIBITOR” (ALBERT EINSTEIN COLLEGE OF MEDICINE, priority 2021, published 2024).

One data set has as its system neuron-related cells. Nature of the data set: CMA activity, KFERQ-PS-Dendra reporter in neuron-related cells. It is filed as cell-based, mouse. The settings on record: for CMA activation: neuronal-related mouse cells. How it is done:
(§1) Cells: NIH3T3 mouse fibroblasts and the N2a neuroblastoma cell line were obtained from the American Type Culture Collection and were validated by genomic PCR. Primary human fibroblasts (GM01651) were from Coriell Repository. All the cells lines were tested for mycoplasma contamination using DNA staining protocol with Hoechst 33258 dye. Knock-down of NCoR1 was done using lentiviral mediated shRNA (SHCLNG-NM_011308) from the Sigma Mission library following standard procedures. Efficiency of knock-down was tested by immunoblot. Cell viability was measured using the CellTiter-Blue kit (Promega) 24 h after the addition of the different stressors according to manufacturer's instructions.
CMA activity: Cells were transduced with lentivirus carrying the KFERQ-PS-Dendra reporter as before. Cells were photoactivated by exposure to a 3.5 mA (current constant) light emitting diode (LED: Norlux, 405 nm) for 3 min and then plated in glass-bottom 96 well plates. At the desired times, cells were fixed with 4% PFA and imaged using high-content microscopy (Operetta system, Perkin Elmer). Images were quantified using the manufacturer's software in a minimum of 1,200 cells in 9 independent fields per well. […] To avoid con-funding effects for drug-induced changes in cell volume or adherence to the plate that could bring a fraction of the cells per field outside of focus, we set a threshold to count only cells that have at least 1/10 of the average number of […] detected in the untreated wells for each cell type (3-4 puncta/cell in the case of NIH3T3 and N2a cells and 5 puncta/cell in primary human fibroblasts). […] Slices were mounted in DAPI-Fluoromount-G to highlight the cell nucleus and allow quantification of puncta per cell. Images were acquired in x-y-z planes with an Axiovert 200 fluorescence microscope (Carl Zeiss Ltd) with a ×63 objective and 1.4 numerical aperture, mounted with an ApoTome.2 slider or with a Confocal microscope (TCS SP5; Leica) using an HCX Plan Apo CS×63.0 1.40 NA oil objective and the Leica Application Suite X (LAS X).

Another data set has as its system NIH3T3 cells. As to the kind of experiment: CMA activity, KFERQ-PS-Dendra reporter in NIH3T3 cells. It is filed as cell-based, mouse. As to conditions: for CMA activation after washout: 12 h after washing out the compounds from the media; for CMA activating effect upon knock-down of NCoR1: NCoR1 KD NIH3T3, 20 μM, 24 h; for CMA activation: increasing concentrations, 12 or 24 h, compared with AR7. The protocol:
CMA activity: Cells were transduced with lentivirus carrying the KFERQ-PS-Dendra reporter as before. Cells were photoactivated by exposure to a 3.5 mA (current constant) light emitting diode (LED: Norlux, 405 nm) for 3 min and then plated in glass-bottom 96 well plates. At the desired times, cells were fixed with 4% PFA and imaged using high-content microscopy (Operetta system, Perkin Elmer). Images were quantified using the manufacturer's software in a minimum of 1,200 cells in 9 independent fields per well. […] This was particularly important in the case of primary human cells where efficiency of transduction was approximately 65%. To avoid con-funding effects for drug-induced changes in cell volume or adherence to the plate that could bring a fraction of the cells per field outside of focus, we set a threshold to count only cells that have at least 1/10 of the average number of […] detected in the untreated wells for each cell type (3-4 puncta/cell in the case of NIH3T3 and N2a cells and 5 puncta/cell in primary human fibroblasts). To measure CMA in the tissues from KFERQ-Dendra mice, the organs of interest were fixed for 12 h at 4° C. in picric acid fixation buffer (2% formaldehyde, 0.2% picric acid in PBS, pH7.0) and then washed with 70% ethanol, followed by two washes in PBS. Tissues were immersed in 30% sucrose and then embedded in OCT for sectioning in a cryostat (Leica CM3050 S). After airdrying for 30 min, sections were stored at −20° C. until use. Slices were mounted in DAPI-Fluoromount-G to highlight the cell nucleus and allow quantification of puncta per cell. Images were acquired in x-y-z planes with an Axiovert 200 fluorescence microscope (Carl Zeiss Ltd) with a ×63 objective and 1.4 numerical aperture, mounted with an ApoTome.2 slider or with a Confocal microscope (TCS SP5; Leica) using an HCX Plan Apo CS×63.0 1.40 NA oil objective and the Leica Application Suite X (LAS X).

Data set [1] has as its system NIH3T3. Nature of the data set: Cell viability under paraquat oxidative stress. It is filed as cell-based, mouse. How it is done: as §1
Data set [2] deals with NIH3T3. As to the kind of experiment: Macroautophagy activity (LC3-II flux, mCherry-GFP-LC3 reporter). It is filed as cell-based, mouse. The settings on record: 20 μM 16 h (LC3 flux). The protocol: Macroautophagy activity: Cells were transduced with a lentiviral vector expressing mCherry-GPF-LC3^32, fixed and flux determined as the conversion of dual fluorescence puncta (autophagosomes) into only red fluorescent puncta (autolysosomes). Flux was also measured by immunoblot for LC3 in cells incubated for 6 h with 20 mM NH4Cl/100 μM leupeptin, by discounting the intensity of LC3 in non-treated cells from that in cells treated with the inhibitors.

A short description of data set [3]: Pharmacokinetics in mice (plasma and brain). It is filed as in vivo, mouse. As to conditions: mice; for brain to plasma ratio: i.v. or p.o. The protocol:
ICR (CD-1) male mice were fasted at least three hours and water was available ad libitum before the study. Animals were housed in a controlled environment, target conditions: temperature 18 to 29° C., relative humidity 30 to 70%. Temperature and relative humidity was monitored daily. An electronic time controlled lighting system was used to provide a 12 hr light/12 hr dark cycle. 3 mice for each indicated time point were administered 30 mg/Kg CA39 or CA77 by oral gavage or 1 mg/Kg CA39 or CA77 by intravenous injection using 30% PEG-400, 65% D5W (5% dextrose in water), 5% Tween-80 vehicle. Mice were sacrificed, and brain samples were harvested at 0 hr, 0.25 hr, 0.5 hr, 1 hr, 2 hr, 4 hr, 8 hr, 24 hr, and analyzed for CA39 or CA77 levels using LC-MS/MS. Pharmacokinetics parameters were calculated using Phoenix WinNonlin 6.3. Experiments performed at SIMM-SERVIER joint Biopharmacy Laboratory.

Data set [4] can be described thus: Bidirectional permeability assay with CaCo-2 cells. The format is in vitro ADME. The protocol:
In vitro solubility in the following conditions A) HBSS/HEPES 10 mM/BSA 0.1% pH 6 B) HBSS/HEPES 10 mM/BSA 0.1% pH 7.4 C) TRIS/BSA 0.1% PBS (pH 7.4 and at indicated doses were measured by Nephelometry using the NEPHELOstar Galaxy apparatus (BMG Lab Technologies). In vitro stability in human, mouse and rat liver microsomes and permeability using a bidirectional permeability assay with CaCo-2 cells (pH 6.5/7.4) assays were performed with standard methodology and analyzed by LC-MS/MS. at SIMM-SERVIER joint Biopharmacy Laboratory. In silico ADME properties calculated by QikProp (Schrodinger, LLC) analysis and ADME predictions for CA39 (left) and CA77 (right).
(Caco-2 monolayers are a common model of the intestinal barrier.)

Data set [5] concerns retinal explants of rd10 mice. As to the kind of experiment: Ex vivo retinal explants of rd10 mice. Details: species or system mouse. The settings on record: 10 μM, 24 h; vs contralateral untreated explant. The protocol: Ex-vivo retinal cultures: After removal of the eyes, all non-relevant tissue was removed from the neuroretina, which was then placed, photoreceptors upside down, in millicell support inserts (Millipore) and maintained in DMEM with 1 μM insulin (SIGMA, I2643-25 mg) for 24 h at 37° C. in a 5% CO2 atmosphere. Where indicated, retinas were incubated with 10 µM CA77 for the indicated times. The retinas were then washed twice with phosphate-buffered saline (PBS), fixed overnight in 4% paraformaldehyde (w/v) in 0.1 M phosphate buffer (pH 7.4) and processed.
Staining of whole-mount retinas: Immunostainings were performed overnight at 4° ° C. using antibodies against visual arrestin (Santacruz Biotechnologies) and Opsin R/G (Millipore) after initial permeabilization with 2% Triton X-100 for 1 h at RT and subsequent incubation with blocking solution (10% normal goat serum, 0.25% Triton X-100 in PBS). The retinas were then washed and incubated for 1 h with Alexa 568 or 647 (Invitrogen), counterstained with DAPI, mounted in Fluoromount, and visualized by confocal microscopy in a SP5 confocal microscope (TCS SP5; Leica Microsystems).

`Clc1ccc2c(c1)OCC(c1ccc(-c3ccccc3)cc1)=N2` [CA39]: in the data set on neuron-related cells, the CMA activation entry was “efficiently activate CMA”. Further, in the data set with NIH3T3 cells, the “CMA activation after washout” value is recorded as “activation was still noticeable”; the “CMA activating effect upon knock-down of NCoR1” value is “completely ablated the activating effect”; the CMA activation result was “activate CMA in a time and dose-dependent manner with higher potency than AR7”. Moreover, the protection against paraquat result with NIH3T3 [1] (compound added after the insult, compared with AR7) is “significantly higher protection than AR7”. Also, the “cell death under paraquat” value in the data set on NIH3T3 [1] (compound administered before the insult) is “reduced cell death”. For the same molecule, the effect on macroautophagy result in the data set on NIH3T3 [2] was “did not have the inhibitory effect on macroautophagy”. Moreover, the half-life in data set [3] (male, ICR (CD-1), mouse, plasma, intravenous, 1 mg/kg, route not printed (second pair of values), read-out: half-life in plasma (converted)) is 8.2 h. Also, in data set [3], the “blood brain barrier crossing” value is reported as “efficiently crossed the brain blood barrier” and the “brain to plasma ratio” value is listed as “high”. This molecule also displayed a half-life in brain in data set [3] (IV 1 mg/kg) of 8 h. In data set [3] (PO 30 mg/kg), the half-life in brain is 10 h and the half-life in plasma was found to be 7.5 h.
Take `CC(=O)Nc1ccc(C2=Nc3ccc(Cl)cc3OC2)cc1` [CA77]: the “CMA activation after removal of compound” value in the data set with neuron-related cells (compound removed from the media) was “persisted and even further increased after the compound was removed from the media”. Further, the CMA activation result with neuron-related cells is given as “efficiently activate CMA”. Besides, in data set [4], the membrane permeability result was “highly membrane permeable”. In the data set with NIH3T3 cells, the “CMA activation after washout” value is on record as “activation was still noticeable”; the “CMA activating effect upon knock-down of NCoR1” value was “completely ablated the activating effect”; the CMA activation entry is “activate CMA in a time and dose-dependent manner with higher potency than AR7”. The effect on macroautophagy entry with NIH3T3 [2] is recorded as “did not have the inhibitory effect on macroautophagy”. In addition, in data set [5], the “cones (opsin-positive)” value is listed as “higher preservation also for cones” and the “number of rods (rod arrestin-positive)” value is listed as “significant preservation of the number of rods”. Besides, in data set [3], the “blood brain barrier crossing” value is reported as “efficiently crossed the brain blood barrier” and the “brain to plasma ratio” value is “high”. In data set [3] (IV 1 mg/kg), this molecule registered a half-life in brain of 1.8 h. In data set [3] (PO 30 mg/kg), the half-life in brain was 4.2 h and the half-life in plasma came to 2.2 h.
